From paper doi:10.64898/2025.12.30.696991 (bioRxiv, 2026)
Read-outs that look alike come from different tables or passages of the source.

Key:
[1] = test system: planktonic susceptible S. Typhimurium (ATCC 700720); experiment: Direct effect on planktonic susceptible bacteria (optical density 600 nm); type: cell-based, Salmonella enterica serovar Typhimurium; settings: Salmonella enterica
Description: (§1) A single colony of susceptible or MDR bacteria was inoculated into nutrient broth and incubated overnight at 37°C in an orbital shaker set at 200 rpm. The overnight culture was sub-cultured (1:100) in fresh medium to obtain log-phase bacterial growth after an additional 3 hr incubation at 37°C and further adjusted to obtain a bacterial stock solution with an absorbance value of 0.6 at 600 nm, equivalent to a concentration of 3×10^8 CFU/mL. The bacterial stock was diluted with nutrient broth to obtain 3×10^4 CFU/well in a 96 well plate. Next, 10 μL of each analog were added to yield a total volume of 100 μL /well with a final concentration of 20 μM. Drug-free and bacteria-free wells were used as controls. The plate was incubated at 37°C for 22 hr. Percent bacterial viability was determined using optical density measurements at 600 nm, subtracting out bacteria free absorbance (background) and normalizing to a DMSO vehicle control. Bacterial viability was plotted against increasing drug concentration to obtain the 50% minimum inhibitory concentration (MIC50), defined as the drug concentration resulting in 50% bacterial viability.

[2] = test system: intracellular susceptible S. Typhimurium (ATCC 700720); experiment: Intracellular gentamicin protection assay, susceptible S. Typhimurium in RAW 264.7 macrophages; type: cell-based, Salmonella enterica serovar Typhimurium; settings: for IC50: Salmonella enterica; for Selectivity: LC50 / IC50, susceptible S. Typhimurium; for selectivity (selectivity indices): LC50 / IC50, strain not specified
Description: (§2) RAW 264.7 cells were seeded at 3×10^4 cells/well in a 96-well plate and maintained at 37°C for 20 hours. A single colony of susceptible or MDR S. Typhimurium was inoculated and cultured overnight in nutrient broth and diluted to obtain a log-phase culture stock with an adjusted optical density (OD600) of 0.6, equivalent to a concentration of 3×10^8 CFU/mL (determined by a prior colony forming units (CFU) assay). The bacterial stock solution was resuspended in antibiotic-free DMEM supplemented with 2% FBS and further diluted to obtain a bacterial concentration of 3×10^6 CFU/mL. Cell media was aspirated and replaced with 100 μL of bacteria culture in DMEM resulting in a multiplicity of infection (MOI) of 10. The cells underwent infection for two hours or 30 minutes at 37°C with susceptible or MDR bacteria, respectively. This differential infection incubation period was based on strain-specific infectivity potential. […] Media was aspirated from the wells and replaced with DMEM (2% FBS) containing 100 μg/mL gentamicin for one hour at 37°C to eliminate extracellular bacteria. Following this step, cells were washed once with media and treated for 22 hours with analogs at varying concentrations (0.1 – 5 μM) in DMEM (2% FBS, no pen/strep) containing 10 μg/mL gentamicin to suppress extracellular bacterial growth. AR-12 treated, uninfected, and DMSO-vehicle treated cells were included as controls. Post treatment, cells were washed with PBS and lysed with 0.1% Triton-X100, a concentration sufficient to disrupt host cells while preserving bacterial integrity. The lysates containing intracellular bacteria were serially diluted and enumerated by using drop-plate assay as described previously.([27]) Agar plates were incubated overnight at 37°C before CFU from each dilution were counted.

[3] = test system: planktonic MDR S. Typhimurium (ATCC 700408); experiment: Direct effect on planktonic MDR bacteria (optical density 600 nm); type: cell-based, Salmonella enterica serovar Typhimurium; settings: Salmonella enterica, Table 2, OD 600 nm
Description: as §1

[4] = test system: intracellular MDR S. Typhimurium (ATCC 700408); experiment: Intracellular gentamicin protection assay, MDR S. Typhimurium in RAW 264.7 macrophages; type: cell-based, Salmonella enterica serovar Typhimurium; settings: for IC50: Salmonella enterica, RAW264.7, Table 2, intracellular burden 50% in RAW 264.7; for MDR Selectivity: Table 2, LC50 / IC50; for difference of IC50 between susceptible and MDR S. Typhimurium: defined as 2-fold difference MDR IC50 / Susc IC50
Description: as §2
Supplemental Figure 2: Evaluating lead compound efficacy against MDR S. Typhimurium. A) Schematic illustrating gentamicin protection assay. Day 0 RAW 264.7 macrophages are seeded into 96-well plate and STM culture is inoculated. Day 1: RAW 264.7 cells are infected with STM at an MOI of 10 for 30 min, washed, then treated with gentamicin for 1hr to remove extracellular bacteria. AR-12 analogs added to infected cells for 22hr incubation. Day 2: RAWs are washed, lysed, diluted and then dropped onto agar plates. Day 3: colony forming units (CFUs) counted. B) Dose effect curves of intracellular MDR S. Typhimurium viability from RAW 264.7 macrophages after 22hr treatment with hit compounds. CFUs normalized to untreated controls. Parental compound AR-12 included for comparison.

[5] = in vitro; type: cell-based; settings: mouse, LC50
Description: Cell proliferation and viability in the presence of the analogs was tested in the macrophage cell line RAW 264.7 using a 3-(4,5-dimethylthiazol-2-yl)-2,5-diphenyl-2H-tetrazolium bromide (MTT) assay. Cells were seeded at 3×10^4 cells/well in 96 well plates in DMEM (10% FBS, 1% pen/strep). […] DMSO vehicle was utilized as a control, as all the drugs were reconstituted from DMSO stocks. After 24 hr treatment, media was replaced with 100 μL of 0.6 mg/mL MTT solution and the cells were incubated at 37°C until formazan crystals formed. The MTT solution was then replaced with 100 μL of isopropanol, to dissolve the formazan crystals. Cell viability was determined by measuring absorbance at 560 nm of drug treated cells normalized to DMSO vehicle controls. The absorbance at 670 nm was used as a background correction. Cell viability was plotted against increasing drug concentration to obtain the 50% lethal concentration (LC50), defined as the drug concentration resulting in 50% cell viability.

[6] = Table 1, planktonic susceptible S. Typhimurium viability 50% by optical density, 22 hr, read-out: MIC50
[7] = Table 2, planktonic Salmonella, OD 600 nm, read-out: Susc. MIC50
[8] = RAW264.7, 22 h, Table 1, concentration at which intracellular susceptible S. Typhimurium burden is 50% in RAW 264.7 macrophages, 22 h treatment, read-out: IC50
[9] = RAW264.7, Table 2, intracellular burden 50% in RAW 264.7, read-out: Susc. IC50

Row | Structure (SMILES) | MIC50 [1, 6] [µM] | MIC50 [1, 7] [µM] | IC50 [2, 8] [nM] | IC50 [2, 9] [nM] | Selectivity ([2]; Table 1) | MIC50 [3] [µM] | IC50 [4] [nM] | MDR Selectivity [4] | difference of IC50 between susceptible and MDR S. Typhimurium [4] | CC50 at 24 h [5] [nM] | selectivity (selectivity indices) [2] | improvement in selectivity over AR-12 [2]
1 | N#Cc1ccc(CNC2CCN(c3ccc(-n4nc(C(F)(F)F)cc4C4CCCCC4)cc3)C2)cc1 (stereo not drawn) [Compound 365] | > 20 | > 20 | 150 | 150 | 285 | > 20 | 370 | 115 | strongly different | 42700 | – | –
2 | FC(F)(F)c1cc(C2CCCCC2)n(-c2ccc(OC3CCNCC3)cc2)n1 [Compound 370] | > 20 | > 20 | 80 | 80 | 229 | > 20 | 60 | 269 | – | 17200 | – | –
3 | Fc1cccc(CN2CCC(Oc3ccc(-n4nc(C(F)(F)F)cc4C4CCCCC4)cc3)CC2)c1 [Compound 372] | > 20 | > 20 | 130 | ~130 | >769 | > 20 | 170 | – | – | – | > 2000 | –
4 | N#Cc1ccc(CN2CCC(Nc3ccc(-n4nc(C(F)(F)F)cc4C4CCCCC4)cc3)CC2)cc1 [Compound 323] | > 20 | > 20 | 100 | 100 | 333 | > 20 | 200 | 160 | strongly different | 32000 | – | –
5 | NCC(=O)Nc1ccc(-n2nc(C(F)(F)F)cc2C2CCCCC2)cc1 [Compound 341] | > 20 | > 20 | 80 | 80 | 398 | > 20 | 100 | 318 | – | 31800 | – | –
6 | FC(F)(F)c1cc(C2CCCCC2)n(-c2ccc(OC3CCN(Cc4ccccc4)C3)cc2)n1 (stereo not drawn) [Compound 378] | > 20 | > 20 | 310 | 310 | >322 | > 20 | 180 | – | – | – | – | approximately 100 fold
7 | FC(F)(F)c1cc(C2CCCCC2)n(-c2ccc(OC3CCN(Cc4ccccc4)CC3)cc2)n1 [Compound 371] | > 20 | > 20 | 140 | 140 | 644 | > 20 | 110 | 790 | – | 90200 | – | –
8 | FC(F)(F)c1cc(C2CCCCC2)n(-c2ccc(NC3CCN(Cc4ccccc4)CC3)cc2)n1 [Compound 381] | > 20 | > 20 | 110 | 110 | 260 | > 20 | 140 | 211 | – | 28600 | – | –
9 | Fc1cccc(CN2CCC(Nc3ccc(-n4nc(C(F)(F)F)cc4C4CCCCC4)cc3)CC2)c1 [Compound 322] | > 20 | > 20 | 140 | 140 | 324 | > 20 | 120 | 372 | – | 43700 | – | –
10 | NC1CCN(c2ccc(-n3nc(C(F)(F)F)cc3C3CCCCC3)cc2)CC1 [Compound 324] | > 20 | > 20 | 80 | 80 | 244 | > 20 | 160 | 118 | strongly different | 18800 | – | –
11 | FC(F)(F)c1cc(C2CCCCC2)n(-c2ccc(N3CCC(NCc4ccccc4)C3)cc2)n1 (stereo not drawn) [Compound 364] | > 20 | > 20 | 130 | 130 | 269 | > 20 | 120 | 291 | – | 35000 | – | –
12 | N#Cc1ccc(CN2CCC(Oc3ccc(-n4nc(C(F)(F)F)cc4C4CCCCC4)cc3)CC2)cc1 [Compound 373] | > 20 | > 20 | 130 | ~130 | >769 | > 20 | ~130 | – | – | – | > 2000 | –
